Measured values from patent EP0490410B1, “TXA2 Receptor and gene encoding the same” (SHIONOGI SEIYAKU KABUSHIKI KAISHA, priority 1990, dated 1992).

How the values were obtained:
[1] = test system: human TXA2 receptor encoded by HPL (SEQ ID NO: 1), expressed in Xenopus oocytes; assay: Electrophysiological response (two-micropipette voltage clamp) of Xenopus oocytes injected with in vitro transcribed mRNA of HPL; type: cell-based; settings: for response evoked (inward current): ligand added to the bath at 1 µM, oocytes 48 hours after mRNA injection
Method: The TXA2 receptor stimulation results in PI turnover and Ca^2+ mobilization. The present inventors, therefore, expressed the clone in Xenopus oocyte where agonist stimulation linked to PI turnover opens endogenous Ca^2+-dependent Cl^- channel. […] The mRNA synthesized in vitro from the 2.0 kb BamHI subclone of HPL was injected into Xenopus oocytes and electrophysiological responses were measured after 48 hours. A TXA2 agonist, STA2, and other PGs dissolved in ethanol at 100 µM were added to the bath at 1 µM concentration, and responses of oocytes were recorded by the two-micropipette voltage clamp method as described in Masu, Y. et al., Nature 329, 836-838 (1987).

[2] = target: T1, human TXA2 receptor encoded by placenta cDNA clone HPL (SEQ ID NO: 1), expressed in COS-7 cells (Homo sapiens, UniProt P21731); assay: Competition for [3H]S-145 binding to membranes of transfected COS-7 cells; settings: 1.25 nM [^3H]S-145 and various concentrations of ligands
T1 construct: expressed in transfected cells; host or cells: COS-7 cells (CDM8 vector), membranes
T1 sequence (P21731 1-343): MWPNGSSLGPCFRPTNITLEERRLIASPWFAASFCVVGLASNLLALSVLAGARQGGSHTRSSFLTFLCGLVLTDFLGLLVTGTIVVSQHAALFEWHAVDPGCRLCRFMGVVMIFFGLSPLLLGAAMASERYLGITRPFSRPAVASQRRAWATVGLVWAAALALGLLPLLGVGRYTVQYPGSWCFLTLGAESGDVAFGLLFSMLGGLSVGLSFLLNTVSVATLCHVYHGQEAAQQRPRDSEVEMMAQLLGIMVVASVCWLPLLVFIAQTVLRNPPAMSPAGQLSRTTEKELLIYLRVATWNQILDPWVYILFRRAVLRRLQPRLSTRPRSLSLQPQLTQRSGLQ
Method: To establish that HPL encodes the TXA2 receptor, the present inventors subcloned a 2.0 kb fragment of HPL into an eukaryotic expression vector, CDM8 (Seed, B., Nature 329, 840-842 (1987)), and transfected the plasmid into COS-7 cells. […] Specificity of this binding was analysed with several TXA2 analogues as well as various prostanoids.
HPL was digested with BamHI to remove most of the 5'-untranslated region, and its 2.0 kb fragment was inserted between the HindIII-XbaI site of eukaryotic expression vector CDM8 (Seed, B., Nature […], 840-842 (1987)). A modified DEAE-dextran method (Ausbel, F. M. et al, Current Protocols in Molecular Biology. 9.2.5 (Wiley, New York, 1989)) was used for the transfection of COS-7 cells. At 60 h after the transfection, cells were collected and membranes were prepared by homogenizing the cells according to the method of Ausbel, F. M. et al., as described above in the presence of 1 mM benzamidine and 0.3 mM PMSF.

Row | Compound | response evoked (inward current) [1] | competition for the [^3H]S-145 binding [2] | concentration as low as which the response was seen ([1]; oocytes injected with mRNA of HPL) [nM]
1 | CCCCCC(O)C=CC1C(O)CC2OC(=CCCCC(=O)O)CC21 (stereo not drawn) [I2] | did not evoke response |  | 
2 | CC1(C)[C@H]2C[C@H](NC(=O)[C@H](O)C3CCCC3)[C@@H](C/C=C\CCCC(=O)O)[C@@H]1C2 [ONO-3708] |  | competed for the [^3H]S-145 binding | 
3 | CCCCC[C@H](O)/C=C/[C@H]1[C@H](O)CC(=O)[C@@H]1CCCCCCC(=O)O [PGE1] | did not evoke response |  | 
4 | O=C(O)CCCC=CCC1C2CCC(C2)C1NS(=O)(=O)c1ccccc1 (stereo not drawn) [S-145] |  | competed for the [^3H]S-145 binding | 
5 | CCCCCC(O)C=CC1CC2CC(S2)C1CC=CCCCC(=O)O (stereo not drawn) [STA2] | evoked a fast inward current of a few hundred nA followed by a slow phase of current of low amplitude | competed for the [^3H]S-145 binding | 1
6 | CCCCC[C@H](O)/C=C/[C@H]1OC(O)C[C@H](O)[C@@H]1C/C=C\CCCC(=O)O (stereo partly drawn) [TXB2] | did not evoke response | at least two orders of magnitude less active in the competition | 

More lines, main results first:

Row | response evoked (inward current) [1] | competition for the [^3H]S-145 binding [2] | Compound | concentration as low as which the response was seen ([1]; oocytes injected with mRNA of HPL) [nM]
7 | did not evoke response |  | CCCCC[C@H](O)/C=C/[C@H]1[C@H](O)CC(=O)[C@@H]1C/C=C\CCCC(=O)O [E2] | 
8 | did not evoke response |  | CCCCC[C@H](O)/C=C/[C@@H]1[C@@H](C/C=C\CCCC(=O)O)[C@@H](O)C[C@H]1O [PGF2 α] | 
9 | did not evoke response |  | PGD2 | 
